# Several values for one entry are separate records, joined by “and”; a condition that tells them apart may be missing. Equal entries are not always repeated. Entries after “also recorded” stand apart in the source; their conditions may differ. Where two headings read alike, the source gives them in different places.
# Key:
# [1] = tested on: dopaminergic (TH+) neurites in primary midbrain cultures; assay: Neurite length quantification of dopaminergic; type: cell-based, rat; settings: for Change in dopaminergic (TH+) neurite length / Dopaminergic (TH+) neurite length (mean ± SEM) / Decrease in dopaminergic (TH+) neurite length / Concentration at which decreased dopaminergic (TH+) neurite length was detected: 24 h; for Decrease in dopaminergic (TH+) neurite length: vs. control; for Change in dopaminergic (TH+) neurite length, time course: 24 – 72 h; for Concentration at which decreased dopaminergic (TH+) neurite length was detected: doses 100 nM – 5 µM
# [2] = tested on: dopaminergic (TH+, MAP2+) neurons in primary midbrain cultures; type: cell-based, rat; settings: for mean % dopaminergic neurons ± S.E.M: n = 6; for Selective loss of dopaminergic neurons / DA neuron loss at 1 µM: vs. control; for percentage of dopaminergic neurons (mean ± SEM), time course: n = 4, control 6.30 ± 0.58
# [3] = tested on: non-dopaminergic (TH-, MAP2+) neurons in primary midbrain cultures; assay: 3-Nitrotyrosine; settings: 1 µM; control 100 ± 21.61
# [4] = tested on: total neurons (MAP2+) in primary midbrain cultures; assay: Neurite length quantification, pan-neuronal; type: cell-based, rat; settings: 1 µM, 24 – 72 h, all time-points
# [5] = tested on: dopaminergic (TH+, MAP2+) neurons in primary midbrain cultures; assay: 3-Nitrotyrosine; settings: 1 µM; for NT fluorescence intensity normalized to mean control value ± SEM, dopaminergic neurons: control 100 ± 9.1
# [6] = tested on: non-dopaminergic (TH-, MAP2+) neurons in primary midbrain cultures; assay: Raw non-dopaminergic; type: cell-based, rat; settings: 1 µM, 24 – 72 h, all time-points
# [7] = ref PubChem Compound Database; cited from earlier work
Compound,"DA neuron loss at 1 µM ([2]; 1 µM, 24 h)","mean % dopaminergic neurons ± S.E.M ([2]; 1 µM, 24 h) [%]","Effect on non-dopaminergic neurites, time course [4]","Change in dopaminergic (TH+) neurite length, time course ([1]; 1 µM)","percentage of dopaminergic neurons (mean ± SEM), time course ([2]; 1 µM, 24 h) [%]","percentage of dopaminergic neurons (mean ± SEM), time course ([2]; 1 µM, 48 h) [%]","percentage of dopaminergic neurons (mean ± SEM), time course ([2]; 1 µM, 72 h) [%]","Effect on non-dopaminergic (MAP2+/TH-) cell counts, time course [6]",Dopaminergic (TH+) neurite length (mean ± SEM) ([1]; 1 µM) [µm],Decrease in dopaminergic (TH+) neurite length ([1]; 1 µM) [%],further results
"Cc1cnc2cc(C)c3c(nc(N)n3C)c2n1 [4,8-DiMeIQx, 2-amino-3,4,8-trimethylimidazo[4,5-f]quinoxaline]",26%,–,–,–,–,–,–,–,–,–,"Change in dopaminergic (TH+) neurite length ([1]; all tested doses 100 nM – 5 µM): no significant alteration; also recorded: did not have an effect; mean % dopaminergic neurons ± S.E.M ([2]; 100 nM, 24 h): 4.663 ± 0.3194%; Selective loss of dopaminergic neurons ([2]; 100 nM, 24 h): 20%"
"Nc1ccc2c(n1)[nH]c1ccccc12 [AαC, 2-amino-9H-pyrido[2,3-b]indole]",27%,3.932 ± 0.4382,–,–,–,–,–,–,–,–,Dopaminergic (TH+) neurite length (mean ± SEM) ([1]; 100 nM): 62.93 ± 1.743 µm; Decrease in dopaminergic (TH+) neurite length ([1]; 100 nM): 11%
"Cc1nccc2c1[nH]c1ccccc12 [Harmane, 1-methyl-9H-pyrido[3,4-b]indole]",21%,–,not affected,Decreased,6.04 ± 0.72,4.80 ± 0.90,3.47 ± 0.53,not affected,–,–,"NT fluorescence intensity normalized to mean control value ± SEM, non-dopaminergic neurons [3]: 188.1 ± 23.92; Dopaminergic (TH+) neurite length (mean ± SEM) ([1]; 100 nM): 62.67 ± 1.713 µm; Decrease in dopaminergic (TH+) neurite length ([1]; 100 nM): 14%; Fold increase in NT immunofluorescence signal vs. control, dopaminergic neurons [5]: ~7 fold; NT fluorescence intensity normalized to mean control value ± SEM, dopaminergic neurons [5]: 731.3 ± 94.03; Threshold for detectable selective DA neurotoxicity [2]: 200 nM; mean % dopaminergic neurons ± S.E.M ([2]; 200 nM, 24 h): 4.677 ± 0.2123%; Selective loss of dopaminergic neurons ([2]; 200 nM, 24 h): 15%"
"Cn1c(N)nc2c3cccnc3ccc21 [IQ, 2-amino-3-methylimidazo[4,5-f]quinoline]",Not significant,–,–,–,–,–,–,–,–,–,"Change in dopaminergic (TH+) neurite length ([1]; higher doses): not significant decreases; Change in dopaminergic (TH+) neurite length ([1]; low doses (100 and 200 nM)): significant increases; mean % dopaminergic neurons ± S.E.M ([2]; 5 µM, 24 h): 4.338 ± 0.4525%; Selective loss of dopaminergic neurons ([2]; 5 µM, 24 h): 23%"
"Cc1cc2ncccc2c2nc(N)n(C)c12 [MeIQ, 2-amino-3,4-dimethylimidazo[4,5-f]quinoline]",25%,–,not affected,Decreased,5.51 ± 0.66,5.11 ± 0.66,3.90 ± 0.81,not affected,63.58 ± 1.584,10,"NT fluorescence intensity normalized to mean control value ± SEM, non-dopaminergic neurons [3]: 130.1 ± 14.91; Fold increase in NT immunofluorescence signal vs. control, dopaminergic neurons [5]: > 5 fold and ~4 fold; NT fluorescence intensity normalized to mean control value ± SEM, dopaminergic neurons [5]: 362.9 ± 45.8; mean % dopaminergic neurons ± S.E.M ([2]; 200 nM, 24 h): 4.372 ± 0.3579%; Selective loss of dopaminergic neurons ([2]; 200 nM, 24 h): 23%"
"Cc1cnc2ccc3c(nc(N)n3C)c2n1 [MeIQx, 2-amino-3,8-dimethylmidazo[4,5-f]quinoxaline]",17%,4.207 ± 0.3535,–,–,–,–,–,–,61.97 ± 1.94,12,Concentration at which decreased dopaminergic (TH+) neurite length was detected [1]: 1000 nM; Log P [7]: 1.0
"c1ccc2c(c1)[nH]c1cnccc12 [Norharmane, 9H-Pyrido[3,4-B]indole]",20%,–,–,–,–,–,–,–,–,–,"Dopaminergic (TH+) neurite length (mean ± SEM) ([1]; 500 nM): 63.15 ± 1.864 µm; Decrease in dopaminergic (TH+) neurite length ([1]; 500 nM): 11%; Concentration at which decreased dopaminergic (TH+) neurite length was detected [1]: 500 nM; Concentration at which decreased dopaminergic (TH+) neurite length was detected ([1]; listed as norharmane): ≥ 500 nM; mean % dopaminergic neurons ± S.E.M ([2]; 100 nM, 24 h): 4.703 ± 0.3711%; Selective loss of dopaminergic neurons ([2]; 100 nM, 24 h): 18%"
"Cn1c(N)nc2ncc(-c3ccccc3)cc21 [PhIP, 2-amino-1-methyl-6-phenylimidazo[4,5-b]pyridine]",19%,4.612 ± 0.3403,not affected,Decreased,5.17 ± 0.95,4.60 ± 0.70,3.61 ± 0.45,not affected,57.76 ± 1.656,15,–

# From article PMC6015749 (Neurotoxicology, 2018)
